# Measured values published in patent EP0382411B1, “Delivery of cytotoxic agents” (ELI LILLY AND COMPANY, priority 1989, dated 1990).
# Values joined by “and” are separate entries in the source; they are usually repeats but may differ in a detail not shown here. Identical values can stand only once.
# Key:
# male Fischer 344 rats = test: Rat hematology protocol (white blood cell determination); type: in vivo; conditions: for WBC's, Day 0, Mean: group mean of 5 rats; for WBC's, Day 0, Mean / WBC's, Day 0: pre-bleed before i.v. injection of 1 mg/kg; for WBC's, Day 3, Mean / WBC's, Day 7, Mean: group mean; for WBC's, Day 7, Mean / WBC's, Day 7: day 7 after 1 mg/kg i.v.; for WBC's, Day 3 / WBC's, Day 7 / WBC's, Day 0: individual rat; for WBC's, Day 0: 1 mg/kg
# Method: The purpose of the following procedure was to compare the toxicity of the Substrate-Cytotoxic Agent to the toxicity of Cytotoxic Agent alone. • 1. Day 0: 25 male Fischer 344 rats (∼100g) are pre-bled (eyebleed) and injected i.v. as follows: • Group A: 5 rats + vehicle control: 0.5 ml 10 mM HEPES, 150 NaCl, pH 7.1 buffer containing 10% ethanol. • Group B: 5 rats + 1 mg/kg 4 desacetylvinblastine-3-carboxhydrazide (DAVLBHYD). Dissolve 1 mg DAVLBHYD in 0.5 ml absolute ethanol and add 4.5 ml HEPES-NaCl buffer. Inject each rat with 0.5 ml. • Group C: 5 rats + 1 mg/kg ("LY262758") (7-β-2-(phenoxyacetamido)-3-(((desacetylvinblastine)aminocarboxy)methylene)-3-cephem-1-β-sulfoxide-4-carboxybiacid, trifluoroacetic acid salt) (vinca content), (58% vinca). Dissolve 2 mg as above and inject 0.5 ml. • Group D: 5 rats + 1mg/kg ("LY266494"), (7-β-(2-(thien-2-yl)acetamido-3-(((desacetylvinblastinehydrazido)carbonyloxy)methylene)-3-cephem-4-carboxylic acid, hydrochloride salt (55.8% vinca). Dissolve 2 mg and inject 0.5 ml. • Group E: 5 rats + 1 mg/kg ("LY266070") 7-β-(2-(thien-2-yl)acetamido-3-(((desacetylvinblastinehydrazido)carbonyloxy)methylene)-3-cephem-1-β-sulfoxide-4-carboxylic acid, trifluoroacetic acid salt. Dissovle 2 mg and inject 0.5 ml. All animals were indentifed by ear punch and were bled on days 3 and 7 post treatment for white blood cell (WBC) determination. The raw data are on the following page. […] The WBC values of the groups were indistinguishable at day 7 (and lower than the pre-bleed which may have been due to using a different instrument for the WBC determination).
# [1] = tested on: CEA - bearing LS174T tumor cells; test: In vitro cytotoxicity determination (3H-leucine uptake); type: cell-based
# Method: Target cells (antigen positive or antigen negative) are resuspended in 75% leucine deficient EBSS-MEM (GIBCO, Grand Island, NY) + 10% dialyzed fetal bovine serum (FBS) + gentamicin (GIBCO) at 200,000 cells/ml. Aliquots of this cell suspension, 0.2 ml, are seeded into 96 well plates and incubated overnight at 37°C, 5% CO₂. To the supernatants is added the antibody-enzyme conjugate to a final concentration of 25 µg/ml (unconjugated enzyme, unconjugated antibody, no treatment). The supernatants are removed after 1 hr incubation, and the cells rinsed once with media. The media is then replaced with the same media, but containing a Substrate-Cytotoxic Agent at concentrations between 0.001 and 10 µg/ml. The cells are incubated with the Substrate-Cytotoxic Agent compound for a period of time ranging from 3 to 48 h at 37°C, 5% CO₂. Media containing 4 µCi of ³H-leucine are added per well. The cells are incubated 24 hr with the labeled leucine, then harvested. Uptake of labeled leucine is determined by liquid scintillation counting. (All Samples are run in triplicate.) Results are reported as the Substrate-Cytotoxic Agent concentration at which leucine incorporation is reduced to 50% of the control value (ID₅₀).
# The rest of the experiment was carried using the above standard procedure.
# [2] = molecular target: P-99 E. cloacae beta-lactamase Enzyme (Enterobacter cloacae, UniProt P05364); test: Release of substituents from the 3'-methylene group of cephalosporins on treatment with beta-lactamase; type: biochemical
# Method: (If the detection method is not instantaneous, the enzyme can be stopped at the desired time by addition of an inhibitor such as cloxacillin (Sigma, St. Louis, Mo.) at its effective concentration: 5 µM for cloxacillin.)
# For instance, a model system for the present method employs the expulsion of aminoethanethiol from 7-β-(2-(thien-2-yl)acetamido)-3-((2-aminoethyl-1-sulfide)methylene)-3-cephem-4-carboxylic acid. A typical enzyme assay was performed (following the 264 nm absorbance), but in 50 mM Tris, 100 mM NaCl buffer, pH 8.0. […] Using molar extinction coefficients of 8,540 for the 264 nm absorbance, and 13,600 for the 412 nm absorbance, the rates of the two reactions can be compared (reaction of thiol with DTNB is instantaneous under these conditions).
# A stock solution of P-99 E. cloacae beta-lactamase Enzyme was prepared. To the stock solution of the cephalosporin Substrate (90 µl) was added stock beta-lactamase solution (10 µl). The reaction was monitored by HPLC (on a Waters Associates C₁₈ µ Bondapak column) eluted with 25% acetonitrile/ 1% acetic acid in water (monitered at 254 nm absorbance). The retention time for 5-fluorouracil was 1.9 minutes and was 5.3 minutes for the cephalosporin - (5-fluorouracil) compound. Approximately 30 seconds after mixing, a 5 µl aliqout of the reaction mixture was injected into the HPLC. […] Thirty-six minutes after mixing the stock solutions the amount of compound eluting at […] was further diminished, and the amount of compound eluting at 1.9 minutes was correspondingly larger by intergration of the peak areas.
# white blood cell (WBC) = test: Rat hematology protocol (white blood cell determination); type: in vivo, male Fischer 344 rats; conditions: day 3 post treatment, 1 mg/kg i.v., compared to all other groups
# Method: The purpose of the following procedure was to compare the toxicity of the Substrate-Cytotoxic Agent to the toxicity of Cytotoxic Agent alone. • 1. Day 0: 25 male Fischer 344 rats (∼100g) are pre-bled (eyebleed) and injected i.v. as follows: • Group A: 5 rats + vehicle control: 0.5 ml 10 mM HEPES, 150 NaCl, pH 7.1 buffer containing 10% ethanol. • Group B: 5 rats + 1 mg/kg 4 desacetylvinblastine-3-carboxhydrazide (DAVLBHYD). Dissolve 1 mg DAVLBHYD in 0.5 ml absolute ethanol and add 4.5 ml HEPES-NaCl buffer. Inject each rat with 0.5 ml. • Group C: 5 rats + 1 mg/kg ("LY262758") (7-β-2-(phenoxyacetamido)-3-(((desacetylvinblastine)aminocarboxy)methylene)-3-cephem-1-β-sulfoxide-4-carboxybiacid, trifluoroacetic acid salt) (vinca content), (58% vinca). Dissolve 2 mg as above and inject 0.5 ml. • Group D: 5 rats + 1mg/kg ("LY266494"), (7-β-(2-(thien-2-yl)acetamido-3-(((desacetylvinblastinehydrazido)carbonyloxy)methylene)-3-cephem-4-carboxylic acid, hydrochloride salt (55.8% vinca). Dissolve 2 mg and inject 0.5 ml. • Group E: 5 rats + 1 mg/kg ("LY266070") 7-β-(2-(thien-2-yl)acetamido-3-(((desacetylvinblastinehydrazido)carbonyloxy)methylene)-3-cephem-1-β-sulfoxide-4-carboxylic acid, trifluoroacetic acid salt. Dissovle 2 mg and inject 0.5 ml. All animals were indentifed by ear punch and were bled on days 3 and 7 post treatment for white blood cell (WBC) determination. […]
# [3] = day 3 after 1 mg/kg i.v., trifluoroacetic acid salt
# [4] = substance alone, no conjugate, treatment time 6 Hours
# [5] = substance alone, no conjugate, treatment time 48 Hours
# P-99 E. cloacae beta-lactamase Enzyme, sequence (P05364 21-381): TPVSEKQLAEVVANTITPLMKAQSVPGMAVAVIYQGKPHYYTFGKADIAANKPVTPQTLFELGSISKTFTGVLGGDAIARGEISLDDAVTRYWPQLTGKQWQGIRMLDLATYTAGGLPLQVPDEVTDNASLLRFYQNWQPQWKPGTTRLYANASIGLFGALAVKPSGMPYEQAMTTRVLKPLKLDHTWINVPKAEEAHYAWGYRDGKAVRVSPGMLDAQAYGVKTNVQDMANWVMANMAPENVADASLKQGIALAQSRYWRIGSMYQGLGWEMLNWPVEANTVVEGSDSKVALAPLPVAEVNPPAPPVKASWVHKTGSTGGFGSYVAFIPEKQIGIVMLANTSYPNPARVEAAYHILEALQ
compound,measurement,setting,value
"7-β-2-(phenoxyacetamido)-3-(((desacetylvinblastine)aminocarboxy)methylene)-3-cephem-1-β-sulfoxide-4-carboxybiacid, trifluoroacetic acid salt [LY262758]","WBC's, Day 0, Mean",male Fischer 344 rats,13.4 x 1000
same,"WBC's, Day 3, Mean",male Fischer 344 rats; day 3 after 1 mg/kg i.v.,14.8 x 1000
same,"WBC's, Day 7, Mean",male Fischer 344 rats,11.2 x 1000
same,"WBC's, Day 3",male Fischer 344 rats; [3],13.3 x 1000 and 14.6 x 1000 and 15.0 x 1000 and 16.3 x 1000 and 14.7 x 1000
same,"WBC's, Day 7",male Fischer 344 rats; trifluoroacetic acid salt,14.0 x 1000 and 13.0 x 1000 and 12.5 x 1000 and 9.0 x 1000 and 7.7 x 1000
same,"WBC's, Day 0",male Fischer 344 rats; trifluoroacetic acid salt,13.3 x 1000 and 14.3 x 1000 and 9.4 x 1000 and 10.2 x 1000 and 19.7 x 1000
7-β-(2-(thien-2-yl)acetamido)-3-((((1-(desacetylvinblastine)amino)-2-ethylsulfide)methylene)-3-cephem-4-carboxylic acid [COMPOUND] [listing 1 of 2 here],toxicity to the tumor cells,[1]; LS174T cells first treated with B-L-CEM231 conjugate at 25 µg/ml for 1 hour,dramatically increased
same,toxicity to the tumor cells,"[1]; LS174T cells untreated with conjugate, compared with the Cytotoxic Agent from which it is derived",much less toxic to the tumor cells than the Cytotoxic Agent from which it is derived
7-β-(2-(thien-2-yl)acetamido)-3-((((1-(desacetylvinblastine)amino)-2-ethylsulfide)methylene)-3-cephem-4-carboxylic acid [COMPOUND] [listing 2 of 2 here],ID50,"[1]; cells first treated with B-L-CEM231 conjugate 25 µg/ml for 1 hour, COMPOUND treatment time 6 Hours",0.265 µg/mL
same,ID50,"[1]; cells first treated with B-L-CEM231 conjugate 25 µg/ml for 1 hour, COMPOUND treatment time 48 Hours",<0.001 µg/mL
same,ID50,[1]; [4],.154 µg/mL
same,ID50,[1]; [5],<0.001 µg/mL
"NCCSCC1=C(C(=O)O)N2C(=O)[C@@H](NC(=O)Cc3cccs3)[C@H]2SC1 [7-β-(2-(thien-2-yl)acetamido)-3-((2-aminoethyl-1-sulfide)methylene)-3-cephem-4-carboxylic acid, reference compound]",release of thiol,"[2]; 50 mM Tris, 100 mM NaCl, pH 8.0, DTNB, absorbance at 412 nm vs 264 nm","thiol is released as a result of beta-lactamase catalyzed cleavage of the cephalosporin, but that the release rate is slower than the catalytic rate"
"CC[C@]1(O)C[C@@H]2CN(CCc3c([nH]c4ccccc34)[C@@](C(=O)OC)(c3cc4c(cc3OC)N(C)[C@H]3[C@@](O)(C(=O)NN)[C@H](O)[C@]5(CC)C=CCN6CC[C@]43[C@@H]65)C2)C1 [DAVLB-Hyd, 4 desacetylvinblastine-3-carboxhydrazide, reference compound]",WBC suppression,"male Fischer 344 rats; day 3 after 1 mg/kg i.v., compared to all other groups",significant WBC suppression
same,"WBC's, Day 0, Mean",male Fischer 344 rats,13.8 x 1000
same,"WBC's, Day 3, Mean",male Fischer 344 rats; day 3 after 1 mg/kg i.v.,7.4 x 1000
same,"WBC's, Day 7, Mean",male Fischer 344 rats,9.2 x 1000
same,"WBC's, Day 3",male Fischer 344 rats; day 3 after 1 mg/kg i.v.,4.4 x 1000 and 9.0 x 1000 and 5.4 x 1000 and 10.6 x 1000
same,"WBC's, Day 7",male Fischer 344 rats,5.0 x 1000 and 2.8 x 1000 and 19.8 x 1000
same,"WBC's, Day 0",male Fischer 344 rats,17.4 x 1000 and 10.9 x 1000 and 10.2 x 1000 and 12.7 x 1000 and 17.6 x 1000
"CC[C@]1(O)C[C@@H]2CN(CCc3c([nH]c4ccccc34)[C@@](C(=O)OC)(c3cc4c(cc3OC)N(C)[C@H]3[C@@](O)(C(=O)NN)[C@H](O)[C@]5(CC)C=CCN6CC[C@]43[C@@H]65)C2)C1 [DAVLBHYD, 4 desacetylvinblastine-3-carboxhydrazide]",white blood cell (WBC) determination,white blood cell (WBC),significant WBC suppression
"CCC1(O)CC2CN(CCc3c([nH]c4ccccc34)C(C(=O)OC)(c3cc4c(cc3OC)N(C)C3C(O)(C(=O)NCCS)C(O)C5(CC)C=CCN6CCC43C65)C2)C1 (stereo not shown) [Desacetylvinblastine aminoethanethiol, reference compound]",ID50,[1]; [4],0.26 µg/mL
same,ID50,[1]; [5],<0.001 µg/mL
CC[C@]1(O)C[C@H]2CN(CCc3c([nH]c4ccccc34)[C@@](C(=O)OC)(c3cc4c(cc3OC)N(C)[C@H]3[C@@](O)(C(=O)NNC(=O)OCC5=C(C(=O)O)N6C(=O)[C@@H](NC(=O)Cc7cccs7)[C@H]6[S+]([O-])C5)[C@H](O)[C@]5(CC)C=CCN6CC[C@]43[C@@H]65)C2)C1.O=C(O)C(F)(F)F (stereo partly shown) [LY266070],"WBC's, Day 0, Mean",male Fischer 344 rats,13.0 x 1000
same,"WBC's, Day 3, Mean",male Fischer 344 rats; day 3 after 1 mg/kg i.v.,13.9 x 1000
same,"WBC's, Day 7, Mean",male Fischer 344 rats,9.6 x 1000
same,"WBC's, Day 3",male Fischer 344 rats; [3],15.9 x 1000 and 12.8 x 1000 and 15.1 x 1000 and 14.5 x 1000 and 11.3 x 1000
same,"WBC's, Day 7",male Fischer 344 rats; trifluoroacetic acid salt,7.0 x 1000 and 14.5 x 1000 and 9.6 x 1000 (2×) and 7.1 x 1000
same,"WBC's, Day 0",male Fischer 344 rats; trifluoroacetic acid salt,14.1 x 1000 and 15.0 x 1000 and 9.9 x 1000 (2×) and 16.2 x 1000
CCC1(O)CC2CN(CCc3c([nH]c4ccccc34)C(C(=O)OC)(c3cc4c(cc3OC)N(C)C3C(O)(C(=O)NNC(=O)OCC5=C(C(=O)O)N6C(=O)C(NC(=O)Cc7cccs7)C6SC5)C(O)C5(CC)C=CCN6CCC43C65)C2)C1.Cl (stereo not shown) [LY266494],"WBC's, Day 0, Mean",male Fischer 344 rats,15.6 x 1000
same,"WBC's, Day 3, Mean",male Fischer 344 rats; day 3 after 1 mg/kg i.v.,15.0 x 1000
same,"WBC's, Day 7, Mean",male Fischer 344 rats,12.0 x 1000
same,"WBC's, Day 3","male Fischer 344 rats; day 3 after 1 mg/kg i.v., hydrochloride salt",19.2 x 1000 and 16.2 x 1000 and 14.3 x 1000 and 13.3 x 1000 and 12.1 x 1000
same,"WBC's, Day 7",male Fischer 344 rats; hydrochloride salt,8.3 x 1000 and 6.8 x 1000 and 11.4 x 1000 and 13.2 x 1000 and 20.1 x 1000
same,"WBC's, Day 0",male Fischer 344 rats; hydrochloride salt,15.6 x 1000 and 16.5 x 1000 and 14.3 x 1000 and 16.0 x 1000
"O=C(Cc1cccs1)N[C@@H]1C(=O)N2C(C(=O)O)=C(Cn3cc(F)c(=O)[nH]c3=O)CS[C@H]12 [ceph-5-FU, 7-β-(2-(thien-2-yl)acetamido)-3-((N-1(5-fluorouracil)-yl)methylene)-3-cephem-4-carboxylic acid]",expulsion of 5-fluorouracil (HPLC trace),[2]; approximately 30 seconds after mixing with beta-lactamase,the cephalosporin had been consumed
same,expulsion of 5-fluorouracil (HPLC trace),"[2]; twenty-one minutes after mixing, 5-fluorouracil elutes at 1.9 minutes",a large amount of compound eluting at 1.9 minutes was observed
